The values below come from article PMC10833137, “Characterization of a novel 4-guanidinobutyrase from Candida parapsilosis” (FEMS Yeast Research, 2024).

The target of data set [1] is T1, CpGBase (C. parapsilosis 4-guanidinobutyrase; CparGBase) (Lodderomyces parapsilosis, UniProt G8B5B7).
T1 construct: gene CPAR2_602270
T1 sequence (G8B5B7 16-367 limits assumed): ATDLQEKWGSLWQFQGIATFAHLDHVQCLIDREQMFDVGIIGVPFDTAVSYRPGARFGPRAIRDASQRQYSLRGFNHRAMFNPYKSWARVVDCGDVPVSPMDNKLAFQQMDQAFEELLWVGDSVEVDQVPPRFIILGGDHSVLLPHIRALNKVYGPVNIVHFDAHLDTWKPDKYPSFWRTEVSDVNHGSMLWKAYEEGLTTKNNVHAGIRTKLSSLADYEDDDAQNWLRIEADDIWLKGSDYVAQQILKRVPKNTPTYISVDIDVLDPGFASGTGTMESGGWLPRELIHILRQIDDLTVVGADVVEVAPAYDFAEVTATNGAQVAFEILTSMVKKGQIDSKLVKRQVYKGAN
In words: modified Archibald urea assay, product inhibition, Cheng-Prusoff. Format: biochemical. The text has this: modified Archibald urea assay, product inhibition, Cheng-Prusoff on CpGBase (C. parapsilosis 4-guanidinobutyrase; CparGBase)

In data set [2] the target is T2, AnGBase (A. niger GBase) (Aspergillus niger, UniProt W8R465).
T2 sequence (W8R465 21-422 limits assumed): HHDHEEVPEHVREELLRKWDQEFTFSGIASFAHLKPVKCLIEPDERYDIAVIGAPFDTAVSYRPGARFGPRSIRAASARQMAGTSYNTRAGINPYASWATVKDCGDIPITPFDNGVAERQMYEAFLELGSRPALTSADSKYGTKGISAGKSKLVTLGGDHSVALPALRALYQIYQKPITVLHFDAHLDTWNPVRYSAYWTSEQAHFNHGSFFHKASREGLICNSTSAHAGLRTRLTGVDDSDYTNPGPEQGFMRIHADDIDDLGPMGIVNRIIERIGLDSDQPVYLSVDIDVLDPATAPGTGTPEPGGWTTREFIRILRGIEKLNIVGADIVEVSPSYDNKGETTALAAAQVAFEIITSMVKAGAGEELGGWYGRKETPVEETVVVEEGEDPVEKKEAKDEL
Nature of the data set: product inhibition, Cheng-Prusoff. Format: biochemical. An excerpt:
product inhibition, Cheng-Prusoff on AnGBase (A. niger GBase)

Substrate in data set [3]: N=C(N)NCCC(=O)O
In words: purified protein. Format: biochemical, Lodderomyces parapsilosis. The note with it: 20 mM phosphate buffer, 37 °C, 20 min, enriched enzyme.

Substrate in data set [4]: N=C(N)NCCCC(=O)O
In words: purified protein. Format: biochemical, Lodderomyces parapsilosis. Particulars: 20 mM phosphate buffer, 37 °C, 20 min, enriched enzyme.

Where two headings read alike, the source gives them in different places.

On to `NCCCC(=O)O` [GABA], for which the Ki in data set [1] (read-out: KI / GABA) came to 3.1 ± 0.5 mM; in data set [2] (read-out: KI / GABA), 4.1 ± 1.1 mM.
Take `NCCC(=O)O` [β-alanine]: the Ki came out at 7.8 ± 1.2 mM in data set [1] (read-out: KI / β-alanine) and 48.7 ± 0.8 mM in data set [2] (read-out: KI / β-alanine).

B1: CpGBase (C. parapsilosis 4-guanidinobutyrase; CparGBase) (Lodderomyces parapsilosis CDC317) (protein)
chain: T1 sequence (G8B5B7 16-367 limits assumed)
For the molecule B1, the values for the Michaelis-Menten constant (Km) in data set [3] and in data set [4] were 9.6 ± 0.4 mM and 4.6 ± 0.5 mM, respectively.
